Measurements reported in patent US11079373B2, “Biomarker detection methods and systems and kits for practicing same” (The Board of Trustees of the Leland Stanford Junior …, priority 2015, dated 2021).

Tests used:
Type in all cases: cell-based, human
C.T.L. cells = test: Two-color IFNγ/IL-2 detection by FLOWSPOT; conditions: PHA at various concentrations, 16 h
Protocol: (§1) One hundred thousand peripheral blood mononuclear cells (0.1×10^6 PBMC) or purified lymphocytes were mixed with 7,000 capture microspheres and distributed into each assay well of a 96-well U bottom plate. The plate was centrifuged at 1,500×g for 5 min and the supernatant was removed. The pellet of cells and capture beads were resuspended in 200 μL culture medium with or without testing reagent(s) or stimulus(i), then the plate was incubated in a humidified 37° C., 5% CO2 incubator for 10 min to 7 days (usually 2 to 16 h). After incubation, the cells were lysed in NP-40 lysis buffer (10 mM Tris-HCl, pH 7.4, 10 mM NaCl, 3 mM MgCl2, 0.5% NP-40). The capture beads were washed twice with 3% HBSA (3% BSA in HBSS) and incubated with 50 μL PE-labeled anti-Bio-marker for 60 min at room temperature. After two washes of 3% HBSA, the beads were acquired and analyzed on a BD FACSCanto II flow cytometer. The number of positive spots was calculated based on the following formulas: Percent positive spots (%)=Number of positive particles acquired/Total number of particles acquired×100 Total number of positive spots=Percent positive spots (%)×7,000 (where 7,000=total number of particles/test)
One hundred thousand C.T.L. cells were co-cultured with a mix of IFNγ and IL-2 capture microparticles (7,000 each with different fluorescent ID codes) for 16 h in the presence of PHA at various concentrations.

[1] = tested on: peripheral blood mononuclear cells (PBMC); test: Cytometric Bead Array (CBA) IFNγ secretion detection in culture media of PHA-treated PBMC; conditions: 16 h, culture medium
Protocol: One hundred thousand peripheral blood mononuclear cells (0.1×10^6 PBMC) in 100 μL of 10% FBS RPMI 1640 containing varying concentrations of PHA were seeded in each well in a 96 well plate and incubated in a humidified 37° C., 5% CO2 incubator for 16 h. The plate was centrifuged at 2,500 g for 3 min and 50 μL culture medium of each well was carefully transferred into each corresponding test well in a new 96 well plate. After adding 50 μL INFγ capture beads (BD Biosciences; Cat. 558269) into each well, the plate was incubated at room temperature (RT) for 60 min with constant shaking on a plate shaker. After adding 50 μL INFγ PE-detection reagents (BD Biosciences; Cat. 51-9004031), the plate was continually incubated at RT for additional 2 h. The beads were then washed three times with 200 μL wash buffer (0.05% Tween-20 in PBS) and acquired on a BD FACSCanto II flow cytometer. The concentrations of INFγ in the culture media from each well were extrapolated from the standard curve generated from a series of known INFγ standards in the same batch of CBA assay.

PBMC cells = test: Three-color IFNγ/IL-2/GrB detection by […]; conditions: PHA 20 ug/mL, 16 h
[2] = tested on: peripheral blood mononuclear cells (PBMC); test: FlowSpot IFNγ secretion in situ detection, PBMC co-cultured with IFNγ capture microparticles in presence of PHA; conditions: 16 h; for FLOWSPOT SPOTS (n) (IFNγ): percent positive × 7,000
Protocol: as §1
In parallel, 0.1×10^6 PBMC cells from the same donor were co-cultured with 7,000 IFNγ capture microparticles in a humidified 37° C., 5% CO2 incubator for 16 h in the presence of PHA at various concentrations. After incubation, the cells were lysed in NP-40 lysis buffer (10 mM Tris-HCl, pH 7.4, 10 mM NaCl, 3 mM MgCl2, 0.5% NP-40). The capture beads were washed twice with 3% HBSA (3% BSA in HBSS) and incubated with 50 μL PE-labeled anti-IFNγ for 60 min at room temperature. After an additional two washes of 3% HBSA, the beads were acquired and analyzed on a BD FACSCanto II flow cytometer.

phytohaemagglutinin [PHA]
IFNγ response to PHA (C.T.L. cells): dose-dependent responses | IL-2 response to PHA (C.T.L. cells): dose-dependent responses | CBA IFNγ ([1]; PHA 0.5 μg/mL, from standard curve): 17 pg/mL | CBA IFNγ ([1]; PHA 1 μg/mL): 36 pg/mL | CBA IFNγ ([1]; PHA 2.5 μg/mL): 76 pg/mL | CBA IFNγ ([1]; PHA 5 μg/mL): 174 pg/mL | CBA IFNγ ([1]; PHA 10 μg/mL): 281 pg/mL | CBA IFNγ ([1]; PHA 15 μg/mL): 344 pg/mL | CBA IFNγ ([1]; PHA 20 μg/mL): 312 pg/mL | median channel value (MCV), intensity of IFNγ secretion (PBMC cells): 653 | median channel value (MCV), intensity of IL-2 secretion (PBMC cells): 407 | number of positive spots for GrB (PBMC cells): 630 spots | number of positive spots for IFNγ (PBMC cells): 5,320 spots | number of positive spots for IL-2 (PBMC cells): 4,340 spots | FLOWSPOT MFI (IFNγ) ([2]; PHA 0.5 μg/mL): 166 | FLOWSPOT % Positive Spot (IFNγ) ([2]; PHA 0.5 μg/mL, 0.1×10^6 PBMC, 7,000 microparticles): 24% | FLOWSPOT SPOTS (n) (IFNγ) ([2]; PHA 0.5 μg/mL): 1680 n | FLOWSPOT % Positive Spot (IFNγ) ([2]; PHA 1 μg/mL): 35% | FLOWSPOT MFI (IFNγ) ([2]; PHA 1 μg/mL): 659 | FLOWSPOT SPOTS (n) (IFNγ) ([2]; PHA 1 μg/mL): 2450 n | FLOWSPOT % Positive Spot (IFNγ) ([2]; PHA 2.5 μg/mL): 43% | FLOWSPOT MFI (IFNγ) ([2]; PHA 2.5 μg/mL): 4050 | FLOWSPOT SPOTS (n) (IFNγ) ([2]; PHA 2.5 μg/mL): 3010 n | FLOWSPOT % Positive Spot (IFNγ) ([2]; PHA 5 μg/mL): 45% | FLOWSPOT MFI (IFNγ) ([2]; PHA 5 μg/mL): 9541 | FLOWSPOT SPOTS (n) (IFNγ) ([2]; PHA 5 μg/mL): 3150 n | FLOWSPOT % Positive Spot (IFNγ) ([2]; PHA 10 μg/mL): 56% | FLOWSPOT MFI (IFNγ) ([2]; PHA 10 μg/mL): 19594 | FLOWSPOT SPOTS (n) (IFNγ) ([2]; PHA 10 μg/mL): 3920 n | FLOWSPOT % Positive Spot (IFNγ) ([2]; PHA 15 μg/mL): 57% | FLOWSPOT MFI (IFNγ) ([2]; PHA 15 μg/mL): 21680 | FLOWSPOT SPOTS (n) (IFNγ) ([2]; PHA 15 μg/mL): 3990 n | FLOWSPOT % Positive Spot (IFNγ) ([2]; PHA 20 μg/mL): 55% | FLOWSPOT MFI (IFNγ) ([2]; PHA 20 μg/mL): 22241 | FLOWSPOT SPOTS (n) (IFNγ) ([2]; PHA 20 μg/mL): 3850 n
